Measurements as given in US20250188085A1, “COMPOSITIONS AND METHODS FOR INHIBITION OF RAS” (THERAS, INC., priority 2022, published 2025).
Like-named read-outs stand apart in the source and are kept apart here.

Tests used:
[1] = target: T1, GppNHp-loaded KRAS4b (amino acids 1-169) G12C/C118S protein (Homo sapiens, UniProt P01116, C118S/G12C); test: Covalent cysteine 12 modification by MALDI-TOF MS, GppNHp-loaded KRAS G12C; type: binding; conditions: 15 minutes reaction time point
T1 construct: KRAS4b (amino acids 1-169) G12C/C118S protein; made in house
In short: (§1)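 KRAS4b 1-169 G12C/C118S loaded with GDP, GppNHp or GTP was used at 1 μM in 20 mM HEPES, 150 mM NaCl, 1 mM MgCl2, pH 7.3, and incubated with compound (5 mM DMSO stock) at room temperature in the dark. % modification at 15 min is adduct peak height over total protein peak heights by linear-mode MALDI-TOF.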

[2] = target: T2, GTP-loaded KRAS4b (amino acids 1-169) G12C/C118S protein (Homo sapiens, UniProt P01116, C118S/G12C); test: Covalent cysteine 12 modification by MALDI-TOF MS, GTP-loaded KRAS G12C; type: binding; conditions: 15 minutes reaction time point
T2 construct: KRAS4b (amino acids 1-169) G12C/C118S protein; made in house
Procedure: Reaction: 1 μM of GppNHp-, GTP-, or GDP-loaded KRAS4b (amino acids 1-169) G12C/C118S protein (produced in-house by Protein Expression Laboratory, FNLCR/Leidos Biomed) in 20 mM 4-(2-hydroxyethyl)-1-piperazineethanesulfonic acid (HEPES) buffer containing 150 mM NaCl, 1 mM MgCl2, pH 7.3 was prepared freshly before assay. Ten-μL aliquots of protein were dispensed onto low volume 384-well plate, then 375 nL DMSO, and 25 nL of tested compounds from 5 mM DMSO stocks were added to appropriate wells using ECHO 555 acoustic liquid handler (Labcyte Inc.). For each reaction/assay, three blanks were prepared by mixing 10 μL of protein solution with 400 nL DMSO. The contents of the wells were carefully mixed by aspiration, and then each plate was sealed with an adhesive cover, centrifuged at 2000 g for 1 minute, and kept in the dark at room temperature until 5 min, 15 min, 30 min, or 2 h collections.
Target pretreatment: Before each assay MALDI target (Bruker MPT 384 ground steel BC) was pre-treated by pipetting on each spot 0.75 μL of saturated sinapinic acid in acetonitrile (ACN).
Sample preparation: At collection time point, 2 μL of reaction mixtures were pipetted out into 20 μL MALDI matrix solution (saturated solution of sinapinic acid in 1:1 ACN:water solution containing 0.75% trifluoroacetic acid (TFA)) deposited on 384 well polypropylene plate. Resulting solution was mixed by aspiration, centrifuged at 2000 g for 1 minute, then 1 μL aliquots were dispensed on pre-treated MALDI target using Beckman Coulter Biomek FXP 96/384-Span-8 Laboratory Automation Workstation. Finally, the MALDI target was dried under mild vacuum to produce spots with fine crystalline structure.
Measurements: MALDI-TOF measurements were performed on a Bruker Daltonics rapiflex Tissuetyper TOF-TOF mass spectrometer using linear mode and mass range from 18.6 to 21.6 kDa. Detector gain was set to 3.3× (483 V), sample rate to 5 GS/s, real time smoothing to medium (175 MHz), laser smart beam pattern was set to: “MS Thin Layer M5”, and the laser frequency was 10000 Hz. Spectra were automatically collected using custom Auto Xecute method. Laser power was auto adjusted using fuzzy control. The peak selection range was set to be between 19000 and 21500 Da. Peak evaluation uses half width parameter set to be smaller than 40 Da for processed spectrograms (centroid peak detection; smoothed by SavitzkyGolay algorithm using 7 m/z width and 2 cycles; baseline was subtracted using median algorithm with flatness 1 and median level 0.01). Fuzzy control used Proteins/Oligonucleotides protocol with minimum half width 1/10 times above threshold. Up to 40000 satisfactory shots were collected in 10000 shot steps. Dynamic termination was implemented to finish data collection when peak signal/noise ratio was reaching value of 50.
Spectra processing: Spectra were smoothed by SavitzkyGolay algorithm using 7 m/z width and three cycles. Centroid peak detection algorithm was used with signal to noise threshold set to 6, relative intensity threshold 4%, peak width 10 m/z and median baseline subtraction using flatness of 1 and median level of 0.01. Peak intensity and area under the peak were evaluated and recorded for all peaks between 19,300 Da and 21,550 Da.
Calculation of percent modification: Percent modification was calculated as a ratio of peak height for protein modified by compound to sum of peak height of remaining protein plus peak height for protein modified by compound. If multiple modifications were observed each was calculated as a ratio of peak height for given modification versus sum of peak heights for all observed protein species. Data reported in Table 5 are from 15 minutes reaction time point.

[3] = target: T3, GDP-loaded KRAS4b (amino acids 1-169) G12C/C118S protein (Homo sapiens, UniProt P01116, C118S/G12C); test: Covalent cysteine 12 modification by MALDI-TOF MS, GDP-loaded KRAS G12C; type: binding; conditions: 15 minutes reaction time point
T3 construct: KRAS4b (amino acids 1-169) G12C/C118S protein; made in house
In short: as §1

[4] = target: T4, Avi-KRAS G12C (1-169) GppNHp/RAF1 RBD-3×FLAG (52-151) (Homo sapiens, UniProt P01116, G12C); test: Raf1 RBD-KRAS G12C-GppNHp disruption (protein:protein interaction HTRF assay); type: biochemical
T4 construct: Avi-KRAS G12C (1-169) GppNHp/RAF1 RBD-3×FLAG (52-151)
In short: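 HTRF measuring disruption of 50 nM Avi-KRAS G12C (1-169) loaded with GppNHp binding RAF1 RBD-3×FLAG (52-151), in pH 7.5 Tris buffer with 5 mM MgCl2, 0.1% BSA, 10% DMSO. KRAS preincubated with compound 1 h, then RBD 1 h, then detection reagents 1 h, all at room temperature. Compound titration 30-0.02 μM; activity expressed as percent of DMSO control.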

pERK in NCI-H358 cells = test: Cell-based pERK HTRF assay; conditions: 30 min incubation, read-out: pERK in NCI-H358 cell inhibition IC50
In short: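 Cells seeded at 4×10^4/well in RPMI with 10% FBS, then next day treated for 30 min with a 9-point, 3-fold series from 75 μM top concentration at 0.25% DMSO. Lysates were read for pERK by HTRF (d2/Eu cryptate antibodies) after 4–24 h at room temperature, emission at 615 nm.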

Structure (SMILES) | GppNHp-KRAS G12C percent of modification [1] | GTP-KRAS G12C percent of modification [2] | GDP-KRAS G12C percent of modification [3] | IC50 [4] [nM] | IC50 (pERK in NCI-H358 cells; Homo sapiens, NCI-H358, 0.5 h) [nM] | IC50 (pERK in NCI-H358 cells) [nM]
C=CC(=O)N1C[C@H](Oc2nc(OC[C@@]34CCCN3C[C@H](F)C4)nc3c(F)c(-c4ccc(F)c5sc(N)c(C#N)c45)c(C(F)(F)F)cc23)C[C@@H]1COC (atropisomer, axis not shown) [Compound 85] | C (10%≤modification <50%) | C (10%≤modification <50%) | C (10%≤modification <50%) | ≤ 500 | – | ≤ 100
C=CC(=O)N1CC[C@@H](Oc2nc(OC[C@@]34CCCN3C[C@H](F)C4)nc3cc(-c4ccc(F)c5sc(N)c(C#N)c45)c(C#N)cc23)[C@H]1COC [Compound 112] | A (percent of modification ≥70%) | C (10%≤modification <50%) | A (percent of modification ≥70%) | ≤ 500 | ≤ 100 | –
C=CC(=O)N1CCC(Oc2nc(OC[C@@]34CCCN3C[C@H](F)C4)nc3c(F)c(-c4ccc(F)c5sc(N)nc45)c(C(F)(F)F)cc23)C1(C)C (some centres unmarked) [Compound 45] | C (10%≤modification <50%) | C (10%≤modification <50%) | B (50≤percent of modification <70%) | ≤ 500 | ≤ 100 | –
C=CC(=O)N1C[C@H](Oc2nc(OC[C@@]34CCCN3C[C@H](F)C4)nc3c(F)c(-c4ccc(F)c5sc(N)nc45)c(C(F)(F)F)cc23)C[C@H]1CO [Compound 66] | A (percent of modification ≥70%) | C (10%≤modification <50%) | A (percent of modification ≥70%) | ≤ 500 | ≤ 100 | –
C=CC(=O)N1C[C@@H](F)[C@@H](Oc2nc(OC[C@@]34CCCN3C[C@H](F)C4)nc3cc(-c4ccc(F)c5sc(N)nc45)c(C(F)(F)F)cc23)C1 [Compound 58] | A (percent of modification ≥70%) | B (50≤percent of modification <70%) | A (percent of modification ≥70%) | ≤ 500 | ≤ 100 | –
C=CC(=O)N1CC[C@@H](Oc2nc(OC[C@@]34CCCN3C[C@H](F)C4)nc3cc(-c4ccc(F)c5sc(N)c(C#N)c45)c(C(F)(F)F)nc23)C1 [Compound 55, 4-(4-(((R)-1-acryloylpyrrolidin-3-yl)oxy)-2-(((2R,7aS)-2-fluorotetrahydro-1H-pyrrolizin-7a (5H)-yl)methoxy)-6-(trifluoromethyl)pyrido[3,2-d]pyrimidin-7-yl)-2-amino-7-fluorobenzo[b]thiophene-3-carbonitrile] | C (10%≤modification <50%) | D (percent of modification <10%) | C (10%≤modification <50%) | ≤ 500 | ≤ 100 | –

More lines, now with the values ahead:

GppNHp-KRAS G12C percent of modification [1] | GTP-KRAS G12C percent of modification [2] | GDP-KRAS G12C percent of modification [3] | IC50 [4] [nM] | IC50 (pERK in NCI-H358 cells; Homo sapiens, NCI-H358, 0.5 h) [nM] | IC50 (pERK in NCI-H358 cells) [nM] | Structure (SMILES)
A (percent of modification ≥70%) | A (percent of modification ≥70%) | A (percent of modification ≥70%) | ≤ 500 | ≤ 100 | – | C=CC(=O)N1CC[C@@H](Oc2nc(OC[C@@]34CCCN3C[C@H](F)C4)nc3c(Cl)c(-c4ccc(F)c5sc(N)c(C#N)c45)ncc23)[C@H]1COC [Compound 110]
A (percent of modification ≥70%) | C (10%≤modification <50%) | A (percent of modification ≥70%) | ≤ 500 | ≤ 100 | – | C=CC(=O)N1CC[C@@H](Oc2nc(OC[C@@]34CCCN3C[C@H](F)C4)nc3cc(-c4ccc(F)c5sc(N)c(C#N)c45)c(C#N)cc23)[C@H]1C [Compound 107]
B (50≤percent of modification <70%) | B (50≤percent of modification <70%) | A (percent of modification ≥70%) | ≤ 500 | – | ≤ 100 | C=CC(=O)N1C[C@H](Oc2nc(OC[C@@]34CCCN3C[C@H](F)C4)nc3c(F)c(-c4ccc(F)c5sc(N)c(C#N)c45)c(C(F)(F)F)cc23)C[C@H]1COC (atropisomer, axis not shown) [Compound 89]
C (10%≤modification <50%) | D (percent of modification <10%) | C (10%≤modification <50%) | ≤ 500 | 100 to 1000 | – | C=CC(=O)N1CC[C@@H](Oc2nc(OC[C@@]34CCCN3C[C@H](F)C4)nc3c(F)c(-c4ccc(F)c5sc(N)c(C#N)c45)c(Cl)cc23)[C@@H]1C [Compound 121]
C (10%≤modification <50%) | C (10%≤modification <50%) | A (percent of modification ≥70%) | ≤ 500 | ≤ 100 | – | C=CC(=O)N1CC[C@@H](Oc2nc(OC[C@@]34CCCN3C[C@H](F)C4)nc3c(F)c(-c4ccc(F)c5sc(N)c(C#N)c45)ccc23)[C@H]1CC [Compound 108]
B (50≤percent of modification <70%) | C (10%≤modification <50%) | A (percent of modification ≥70%) | – | ≤ 100 | – | C=CC(=O)N1CC[C@@H](Oc2nc(OC[C@@]34CCCN3C[C@H](F)C4)nc3cc(-c4ccc(F)c5sc(N)c(C#N)c45)c(F)cc23)[C@H]1C [Compound 109]
